Here are results for 31 molecules from patent US6605601B2, “A1 adenosine receptor antagonists” (Biogen, Inc., priority 2000, dated 2003).

The structures appear in SMILES notation. pKi: −log10 of the molar value.

The target of the experiment is T1, rat A1 adenosine receptor (Rattus norvegicus, UniProt P25099).
T1 construct: Membranes were prepared from rat cerebral cortex isolated from freshly euthanized rats; from tissue; host or cells: rat cerebral cortex
T1 sequence (P25099 1-326): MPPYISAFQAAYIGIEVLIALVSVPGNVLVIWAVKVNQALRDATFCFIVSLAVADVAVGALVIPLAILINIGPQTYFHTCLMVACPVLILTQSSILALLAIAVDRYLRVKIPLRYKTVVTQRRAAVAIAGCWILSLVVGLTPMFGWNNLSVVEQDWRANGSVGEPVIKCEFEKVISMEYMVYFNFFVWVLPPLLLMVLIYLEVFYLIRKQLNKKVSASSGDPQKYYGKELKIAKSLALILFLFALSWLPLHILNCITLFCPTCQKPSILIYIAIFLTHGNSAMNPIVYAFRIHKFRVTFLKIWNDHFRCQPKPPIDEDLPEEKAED
Put plainly: Radioligand ([3H]DPCPX) competition binding assay on rat A1 adenosine receptor (rat cerebral cortex membranes). As to conditions: for % specific radioligand binding remaining at 1 µM: 2.5 h, % of total specific radioligand binding remaining at 1 μM of competing compound; for pKi: [3H]DPCPX 1 nM, Cheng-Prusoff from IC50. The procedure:
For some of these compounds, the Ki values for rat and human adenosine A1 receptors were determined according to the following binding assay protocol.
Rat A1 Receptor: Membranes were prepared from rat cerebral cortex isolated from freshly euthanized rats. Tissues were homogenized in buffer A (10 mM EDTA, 10 mM Na-HEPES, pH 7.4) supplemented with protease inhibitors (10 μg/ml benzamidine, 100 μM PMSF, and 2 μg/ml each of aprotinin, pepstatin and leupeptin), and centrifuged at 20,000×g for 20 min. Pellets were resuspended and washed twice with buffer HE (10 mM Na-HEPES, 1 mM EDTA, pH 7.4, plus protease inhibitors). Final pellets were resuspended in buffer HE, supplemented with 10% (w/v) sucrose and protease inhibitors, and frozen in aliquots at −80° C. Protein concentrations were measured using BCA protein assay kit (Pierce).
Membranes (50 μg membrane protein for rat A1ARs, and 25 μg of CHO-K1 membrane protein for human A1ARs), radioligands and varying concentrations of competing ligands were incubated in triplicates in 0.1 ml buffer HE plus 2 units/ml adenosine deaminase for 2.5 h at 21° C. Radioligand [^3H]DPCPX (112 Ci/mmol from NEN, final concentration: 1 nM) was used for competition binding assays on A1ARs. Nonspecific binding was measured in the presence of 10 μM BG9719. Binding assays were terminated by filtration over Whatman GF/C glass fiber filters using a BRANDEL cell harvester. Filters were rinsed three times with 3-4 ml ice-cold 10 mM Tris-HCl, pH 7.4 and 5 mM MgCl2 at 4° C. Filter paper was transferred to a vial, and 3 ml of scintillation cocktail ScintiVerseII (Fisher)was added. Radioactivity was counted in a Wallac β-counter.
For K1 Determinations: Competition binding data were fit to a single-site binding model and plotted using Prizm GraphPad.
For % Binding: For one-point binding assays, data were presented as % of total specific binding at 1 μM of competing compound: % of total =100* (Specific binding with 1 μM of competing compound/total specific binding). % binding represents the amount of bound radioligand remaining in the presence of 1 μM of competing antagonist.

`CCCN1C(=O)N2CCN=C2c2[nH]c(C34CCC(C(=O)O)(CC3)CC4)nc21` [Compound 6, 4-(5-Oxo-4-propyl-4,5,6,7-tetrahydro-1H-1,3,4,5a,8-pentaaza-as-indacen-2-yl)-bicyclo[2.2.2]octane-l-carboxylic acid] gave a % specific radioligand binding remaining at 1 µM of 2.6%. The same measure, in the same setting: under `CCCN1C(=O)N2CCN=C2c2[nH]c(C34CCC(O)(CC3)CC4)nc21` [Compound 21] stands 12.2%. `CCCN1C(=O)N2C[C@@H](CC)N=C2c2[nH]c(C34CCC(CC3)CC4)nc21` [Compound 9] had a % specific radioligand binding remaining at 1 µM of 0.1% and a pKi of 7.57. In the case of `CCCN1C(=O)N2C[C@@H](CC)N=C2c2[nH]c(C34CCC(CCC(=O)O)(CC3)CC4)nc21` [Compound 3, 3-[4-(7-Ethyl-5-oxo-4-propyl-4,5,6,7-tetrahydro-1H-1,3,4,5a,8-pentaaza-as-indacen-2-yl)-bicyclo[2.2.2]oct-1-yl]-propionic acid], the pKi is 8.08.

Regarding `CCCN1C(=O)N2C[C@@H](CC(C)C)N=C2c2[nH]c(C34CCC(O)(CC3)CC4)nc21` [Compound 17], the pKi was 6.78. Turning to `CCCN1C(=O)N2C[C@@H](C)N=C2c2[nH]c(C34CCC(C(=O)O)(CC3)CC4)nc21` [Compound 22], the % specific radioligand binding remaining at 1 µM was determined as 24%. For `CCCN1C(=O)N2C[C@@H](CC)N=C2c2[nH]c(C34CCC(C(=O)O)(CC3)CC4)nc21` [Compound 10], the % specific radioligand binding remaining at 1 µM stood at 6.2% and the pKi is 7.40.

For the molecule `CCCN1C(=O)N2C[C@@H](C(C)C)N=C2c2[nH]c(C34CCC(CCC(=O)O)(CC3)CC4)nc21` [Compound 5, 3-[4-(7-Isopropyl-5-oxo-4-propyl-4,5,6,7-tetrahydro-1H-1,3,4,5a,8-pentaaza-as-indacen-2-yl)-bicyclo[2.2.2]oct-1-yl]-propionic acid], the % specific radioligand binding remaining at 1 µM is 1.9% and the pKi is 7.98.

The molecule `CCCN1C(=O)N2C(=NC[C@@H]2C)c2[nH]c(C34CCC(O)(CC3)CC4)nc21` [Compound 12] had a % specific radioligand binding remaining at 1 µM of 8.6% and a pKi of 7.29.

In the case of `CCCN1C(=O)N2CCCCN=C2c2[nH]c(C34CCC(C(=O)O)(CC3)CC4)nc21` [Compound 30], the % specific radioligand binding remaining at 1 µM came out at 71%. Regarding `CCCN1C(=O)N2C[C@@H](c3ccccc3)N=C2c2[nH]c(C34CCC(O)(CC3)CC4)nc21` [Compound 13], the pKi was 7.17. `CCCN1C(=O)N2C[C@@H](CC)N=C2c2[nH]c(C34CCC(O)(CC3)CC4)nc21` [Compound 2, 7-Ethyl-2-(4-hydroxy-bicyclo[2.2.2]oct-1-yl)-4-propyl-1,4,6,7-tetrahydro-1,3,4,5a,8-pentaaza-as-indacen-5-one]: the pKi was 8.24. As to `CCCN1C(=O)N2C(=NC[C@H]2C)c2[nH]c(C34CCC(O)(CC3)CC4)nc21` [Compound 14], the % specific radioligand binding remaining at 1 µM amounted to 7.8% and the pKi is 7.16.

For the molecule `CCCN1C(=O)N2C[C@H](CC)N=C2c2[nH]c(C34CCC(C(=O)O)(CC3)CC4)nc21` [Compound 26], the % specific radioligand binding remaining at 1 µM turned out to be 41.1%. `CCCC[C@@H]1CN2C(=O)N(CCC)c3nc(C45CCC(O)(CC4)CC5)[nH]c3C2=N1` [Compound 19] gave a % specific radioligand binding remaining at 1 µM of 18.1%.

As to `CCCN1C(=O)N2C[C@@H](C(C)C)N=C2c2[nH]c(C34CCC(C(=O)O)(CC3)CC4)nc21` [Compound 25], the % specific radioligand binding remaining at 1 µM stood at 46.7%.

For the molecule `CCCN1C(=O)N2C[C@@H](C(C)C)N=C2c2[nH]c(C34CCC(O)(CC3)CC4)nc21` [Compound 1, 2-(4-Hydroxy-bicyclo[2.2.2]oct-1-yl)-7-isopropyl-4-propyl-1,4,6,7-tetrahydro-1,3,4,5a,8-pentaaza-as-indacen-5-one], the pKi was 8.36.

Consider `CCCN1C(=O)N2C[C@H](C(C)CC)N=C2c2[nH]c(C34CCC(O)(CC3)CC4)nc21` (stereo partly shown) [Compound 15], for which the % specific radioligand binding remaining at 1 µM is 7.7% and the pKi was 7.03. Regarding `CCCN1C(=O)N2C[C@@H](C)N=C2c2[nH]c(C34CCC(CCC(=O)O)(CC3)CC4)nc21` [Compound 7], the % specific radioligand binding remaining at 1 µM amounted to 2.5% and the pKi was 7.86. `CCCN1C(=O)N2C[C@@H](Cc3ccccc3)N=C2c2[nH]c(C34CCC(O)(CC3)CC4)nc21` [Compound 18]: the pKi was 6.15.

`CCC[C@@H]1CN2C(=O)N(CCC)c3nc(C45CCC(O)(CC4)CC5)[nH]c3C2=N1` [Compound 11] had a % specific radioligand binding remaining at 1 µM of 3.7% and a pKi of 7.36. The molecule `CCCN1C(=O)N2C[C@@H](C(C)CC)N=C2c2[nH]c(C34CCC(O)(CC3)CC4)nc21` (stereo partly shown) [Compound 8] had a % specific radioligand binding remaining at 1 µM of 1% and a pKi of 7.85. As to `CCCN1C(=O)N2C[C@@H](C(C)(C)C)N=C2c2[nH]c(C34CCC(O)(CC3)CC4)nc21` [Compound 16], the pKi was 6.81.

With `CCCN1C(=O)N2C[C@@H](Cc3ccc(O)cc3)N=C2c2[nH]c(C34CCC(O)(CC3)CC4)nc21` [Compound 28], the % specific radioligand binding remaining at 1 µM came out at 36.3%.

In the case of `CCC[C@@H]1CN2C(=O)N(CCC)c3nc(C45CCC(C(=O)O)(CC4)CC5)[nH]c3C2=N1` [Compound 23], the % specific radioligand binding remaining at 1 µM was 22.8%. Turning to `CCCN1C(=O)N2C[C@@H](C)N=C2c2[nH]c(C34CCC(O)(CC3)CC4)nc21` [Compound 4, 2-(4-Hydroxy-bicyclo[2.2.2]oct-1-yl)-7-methyl-4-propyl-1,4,6,7-tetrahydro-1,3,4,5a,8-pentaaza-as-indacen-5-one], the pKi is 8.00. `CCCN1C(=O)N2C[C@H](CC)N=C2c2[nH]c(C34CCC(O)(CC3)CC4)nc21` [Compound 24] returned a % specific radioligand binding remaining at 1 µM of 11%.

In turn, `CCCN1C(=O)N2CCCN=C2c2[nH]c(C34CCC(C(=O)O)(CC3)CC4)nc21` [Compound 29] showed a % specific radioligand binding remaining at 1 µM of 81.8%. In the case of `CCCN1C(=O)N2CCCN=C2c2[nH]c(C34CCC(O)(CC3)CC4)nc21` [Compound 20], the % specific radioligand binding remaining at 1 µM amounted to 52.7%. The same measure, in the same setting: as for `CCCN1C(=O)N2CC[C@@H](C)N=C2c2[nH]c(C34CCC(O)(CC3)CC4)nc21` [Compound 31], the figure is 40%.

In turn, `CCCN1C(=O)N2CCCCN=C2c2[nH]c(C34CCC(O)(CC3)CC4)nc21` [Compound 27] registered a % specific radioligand binding remaining at 1 µM of 16.3%.

What is called pKi is the negative decadic logarithm of the Ki, by convention in mol/L.
